One experiment concerns the target T1, Cdc7/Dbf4 complex (Homo sapiens, UniProt O00311).
T1 construct: Full-length Cdc7 co-expressed with full-length Dbf4; purchased Carna Biosciences (Kobe)
Put plainly: Measurement of Cdc7 kinase inhibitory activity (Transcreener ADP HTRF assay). It is filed as biochemical. The protocol: Full-length Cdc7 co-expressed with full-length Dbf4 was purchased from Carna Biosciences (Kobe). The enzyme activity of Cdc7/Dbf4 complex was detected by homogeneous time-resolved fluorescence method Transcreener ADP assay (Cisbio Inc., MA, U.S.A.). […] Free ADP produced by ATP hydrolysis was detected by Eu^3+-Cryptate-labeled anti-ADP monoclonal antibody competitively with d2-labeled ADP, and the production amount thereof was measured. The obtained time-resolved fluorescence resonance energy transfer signal was measured by EnVision (Perkin Elmer Inc., MA, U.S.A.). The inhibitory rate (%) of the test compound to Cdc7 was calculated by the following formula. Inhibitory rate(%)=(1−(count of test compound-blank)[…](control-blank))×100
The count of the Cdc7/Dbf4 reaction mixture under compound-free conditions was taken as the control, and that under compound-free and Cdc7/Dbf4-free conditions was taken as the blank.

The test system of experiment [1] is human colorectal cancer cell Colo205. Put plainly: Measurement of growth inhibitory activity on human colorectal cancer cell Colo205 (CellTiter-Glo). It is filed as cell-based. The conditions noted are these: COLO 205, 72 h, read-out: inhibitory rate (%) at 1 μM. The procedure: The growth inhibition of colorectal cancer cell Colo205 with the compound of the present invention can be measured as follows.
A cell suspension (100 μl) of human colorectal cancer cell Colo205 (purchased from ATCC) (3,000 cells/well) was plated in a 96 well plate, and cultured in a 5% carbon dioxide gas incubator at 37° C. for 1 day. Each 2 μM test compound solution was added by 100 μl and the cells were cultured for 3 days. CellTiter-Glo™ Luminescent Cell Viability Assay reagent (50 μl, Promega) was added to the 96 well plate, the luminescence level was measured by a luminometer and the residual ATP amount was taken as the cell amount. The luminescence level of a well free of cell plating was taken as a blank. The cell proliferation inhibitory rate (%) of the test compound was calculated by the following formula. Inhibitory rate(%)=(1−(luminescence level of test compound—blank)[…](luminescence level of control group—blank))×100
A general note: ATP-based viability assays read luminescence as a measure of living cells.

Experiment [2] has as its system phosphorylated MCM2 (Ser40/Ser41). Put plainly: Measurement of MCM2 phosphorylation inhibitory activity in human colorectal cancer cell Colo205 (Western blot). In kind it is cell-based. To be noted: read-out: inhibitory rate (%) at 1 μM. The procedure:
The MCM2 phosphorylation suppressive action of the compound of the present invention in human colorectal cancer cell Colo205 can be measured as follows. A cell suspension (500 μl) of human colorectal cancer cell Colo205 (purchased from ATCC) (50,000 cells/well) was plated in a 24 well plate, and cultured in a 5% carbon dioxide gas incubator at 37° C. for 1 day. […] The plate was washed with PBS, the cells were lysed in Laemmli Sample Buffer (BioRad), and cell lysate was treated at 95° C. for 5 min.
Background: In western blotting, separated proteins are transferred to a membrane and probed.

Experiment [3] relates to human colorectal cancer cell Colo205. Put plainly: Measurement of antitumor activity in human colorectal cancer cell Colo205 cancer bearing mouse. In kind it is in vivo. To be noted: Colo205 tumor growth ratio, mice. The protocol: Tumor volume=long diameter×short diameter×short diameter×(½) Mice having an engrafted tumor volume of about 200 mm^3 were selected, and 5 mice per group were used for the experiment. […] The tumor diameter was measured one day before the start of the administration and the next day of the completion of the administration and the tumor volume was calculated. The tumor growth ratio of the test compound administration group as compared to that of the control administration group was taken as T/C(%) and calculated by the following formula. T/C(%)=(tumor volume of test compound administration group after completion of administration−tumor volume of test compound administration group one day before start of administration)/(tumor volume of control administration group after completion of administration−tumor volume of control administration group one day before start of administration))×100

Experiment [4] has as its system phosphorylated MCM2 (Ser40/Ser41). Put plainly: animal or person. To be noted: Mus musculus, COLO 205, po, 4 h, read-out: inhibitory rate (%).
Method: Human colorectal cancer cell Colo205 was suspended in 50% Matrigel solution, and transplanted into 6- to 7-week-old female BALB/c mice (CLEA Japan, Inc.) at 5.0×10^6 cells by subcutaneous injection. The diameter of the tumor engrafted in 7 to 14 days from the transplantation was measured, and the tumor volume was calculated by the following formula. Tumor volume=long diameter×short diameter×short diameter×(½)
A suspension of the test compound in 0.5% methylcellulose solution (Wako Pure Chemical Industries, Ltd.) was orally administered at a dose shown in the Table to mice having a tumor volume of 150-600 mm^3. The tumor was removed under ether anesthesia at 4 hr after administration of the test compound, and homogenized in Cell Lysis Buffer (Cell Signaling). Using BCA Protein assay kit (Thermo Scientific), the protein in the tumor lysate was quantified, and the protein amount was adjusted. The above-mentioned protein solution was treated with Laemmli Sample Buffer (BioRad) at 95° C. for 5 min.
Then, SDS-PAGE was performed and the protein was transferred onto a PVDF membrane by using iBlot™ gel transfer system (Invitrogen). […] The membrane was washed in the same manner as above, chemical luminescence of antibody-labeled phosphorylated MCM2 protein using SuperSignal West FemtoMaximum Sensitivity Substrate (Pierce Biotechnology) was detected by lumino image analyzer LAS-1000 (Fuji Film).
Using the anti-MCM2 antibody (Santa Cruzu Biotechnology, sc-9839) and HRP-labeled goat IgG polyclonal antibody (Santa Cruzu Biotechnology, sc-2020) and in the same manner as above, the MCM2 protein was detected.
The phosphorylated MCM2 specific activity of each sample was calculated by the following formula. Phosphorylated MCM2 specific activity=(phosphorylated MCM2 luminescence level-background)+(MCM2 luminescence level-background)
The phosphorylated MCM2 protein inhibitory rate (%) of the test compound was calculated by the following formula and shown in Table. […]
Where [5] appears, read: test compound 1 μM, Cdc7/Dbf4, 1.0 μm ATP, 10 μg/ml MCM2, read-out: inhibitory rate (%) at 1 μM.
[6] abbreviates: cell proliferation, Colo205, 1 μM, cultured for 3 days.
Setting [7] is: COLO 205, phosphorylated MCM2 protein, Colo205 cells, 1 μM, 8 hr.
Setting [8] is: test compound 1 μM, Cdc7/Dbf4, 1.0 μm ATP, 10 μg/ml MCM2, hydrochloride.
Where [9] appears, read: read-out: inhibitory rate (%) at 1 μM, test compound 1 μM, Cdc7/Dbf4, 1.0 μm ATP, 10 μg/ml MCM2.
Setting [10] is: test compound 1 μM, Cdc7/Dbf4, 1.0 μm ATP, 10 μg/ml MCM2, dihydrochloride.
Where [11] appears, read: 100 mg/kg orally twice a day for 14 days.

Structures are written as SMILES. Where a name gives a salt, the structure may show the parent alone. Read-outs that look alike come from different tables or passages of the source.

T1 sequence (O00311 whole entry): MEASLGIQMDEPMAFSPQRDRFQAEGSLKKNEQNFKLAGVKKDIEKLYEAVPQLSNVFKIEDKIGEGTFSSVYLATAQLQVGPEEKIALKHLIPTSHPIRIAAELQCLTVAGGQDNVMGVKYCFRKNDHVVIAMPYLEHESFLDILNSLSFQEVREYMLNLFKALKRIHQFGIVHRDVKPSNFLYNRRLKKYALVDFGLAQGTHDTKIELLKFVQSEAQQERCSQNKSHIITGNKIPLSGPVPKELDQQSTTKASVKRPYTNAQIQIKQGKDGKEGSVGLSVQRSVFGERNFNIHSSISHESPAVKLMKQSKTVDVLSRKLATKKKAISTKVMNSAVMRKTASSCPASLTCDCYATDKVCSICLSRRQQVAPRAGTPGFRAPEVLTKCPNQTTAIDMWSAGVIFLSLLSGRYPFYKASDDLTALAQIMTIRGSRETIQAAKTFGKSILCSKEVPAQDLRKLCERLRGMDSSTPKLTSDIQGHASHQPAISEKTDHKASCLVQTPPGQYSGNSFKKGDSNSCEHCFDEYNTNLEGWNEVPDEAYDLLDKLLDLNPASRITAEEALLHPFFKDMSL
T1 sequence (Q9UBU7 whole entry partner): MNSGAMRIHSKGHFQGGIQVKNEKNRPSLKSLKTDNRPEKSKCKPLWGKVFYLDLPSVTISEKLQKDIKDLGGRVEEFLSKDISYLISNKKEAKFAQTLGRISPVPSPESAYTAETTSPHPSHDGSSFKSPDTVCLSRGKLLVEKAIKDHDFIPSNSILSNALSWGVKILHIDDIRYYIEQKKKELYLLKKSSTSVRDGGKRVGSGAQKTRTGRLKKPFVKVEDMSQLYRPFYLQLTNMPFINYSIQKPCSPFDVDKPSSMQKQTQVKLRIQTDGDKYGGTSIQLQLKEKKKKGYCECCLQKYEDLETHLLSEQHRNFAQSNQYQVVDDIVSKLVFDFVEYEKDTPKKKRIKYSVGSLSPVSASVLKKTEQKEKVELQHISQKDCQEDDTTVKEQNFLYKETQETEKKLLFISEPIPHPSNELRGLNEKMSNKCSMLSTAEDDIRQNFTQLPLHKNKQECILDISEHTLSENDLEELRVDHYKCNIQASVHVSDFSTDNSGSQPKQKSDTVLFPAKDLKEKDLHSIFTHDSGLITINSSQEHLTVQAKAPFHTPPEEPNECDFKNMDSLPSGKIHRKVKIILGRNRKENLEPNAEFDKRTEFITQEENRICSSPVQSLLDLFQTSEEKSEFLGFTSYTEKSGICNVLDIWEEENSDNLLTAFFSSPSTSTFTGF

Take `Cc1[nH]ncc1-c1cc2nc([C@H]3NC4CC3[C@H](F)C4)[nH]c(=O)c2s1` (single isomer, unassigned) [Example 160, 2-[(1R,3S,4R,5R) or (1S,3S,4S,5R)-5-fluoro-2-azabicyclo[2.2.1]hept-3-yl]-6-(5-methyl-1H-pyrazol-4-yl)thieno[3,2-d]pyrimidin-4 (3H)-one dihydrochloride]: the inhibition at 1 µM on Cdc7/Dbf4 complex (setting [5]) came out at 104%; in experiment [1] (setting [6]), 73.3%; in experiment [2] (setting [7]) it was 95%.

In the case of `Cc1[nH]ncc1-c1cc2nc([C@H]3NC4CC3[C@H](F)C4)[nH]c(=O)c2s1` (single isomer, unassigned) [Example 175, 2-[(1R,3S,4R,5R) or (1S,3S,4S,5R)-5-fluoro-2-azabicyclo[2.2.1]hept-3-yl]-6-(5-methyl-1H-pyrazol-4-yl)thieno[3,2-d]pyrimidin-4 (3H)-one hydrochloride], at Cdc7/Dbf4 complex (setting [8]), the “inhibitory rate (%) at 1 μM” value is listed as 105%. In experiment [3] (50 mg/kg orally twice a day for 14 days), the “T/C (%)” value worked out at 40.3%.

For the molecule `Cc1[nH]ncc1-c1cc2nc(CN3CCCC3)[nH]c(=O)c2s1` [Example 2, 6-(5-methyl-1H-pyrazol-4-yl)-2-(pyrrolidin-1-ylmethyl)thieno[3,2-d]pyrimidin-4 (3H)-one], the inhibition at 1 µM on Cdc7/Dbf4 complex (setting [9]) worked out at 93.8%; in experiment [1], 44.1%; in experiment [2] (COLO 205, 8 h), 90.4%.

On to `Cc1[nH]ncc1-c1cc2nc([C@@H]3CCCN3)[nH]c(=O)c2s1` [Example 37, 6-(5-methyl-1H-pyrazol-4-yl)-2-[(2S)-pyrrolidin-2-yl]thieno[3,2-d]pyrimidin-4 (3H)-one dihydrochloride], for which, on Cdc7/Dbf4 complex (setting [10]), the “inhibitory rate (%) at 1 μM” value came out at 102.6%. The inhibition at 1 µM came out at 75.3% in experiment [1] and 98.4% in experiment [2] (COLO 205, 8 h).

For `Cc1[nH]ncc1-c1cc2nc([C@@H]3CCCCN3)[nH]c(=O)c2s1` [Example 83, 6-(5-methyl-1H-pyrazol-4-yl)-2-[(2S)-piperidin-2-yl]thieno[3,2-d]pyrimidin-4 (3H)-one dihydrochloride], the “inhibitory rate (%) at 1 μM” value against Cdc7/Dbf4 complex (setting [10]) turned out to be 125.5%. For the same molecule, the inhibition at 1 µM stood at 76.6% in experiment [1] and 97.6% in experiment [2] (COLO 205, 8 h). Also, the “T/C (%)” value in experiment [3] (setting [11]) came out at 5.7%. The inhibition at 100 mg/kg in experiment [4] was found to be 71.8%.

With `Cc1[nH]ncc1-c1cc2nc([C@H]3N[C@@H]4CC[C@H]3C4)[nH]c(=O)c2s1` [Example 91, 2-[(1R,3S,4S)-2-azabicyclo[2.2.1]heptan-3-yl]-6-(5-methyl-1H-pyrazol-4-yl)thieno[3,2-d]pyrimidin-4 (3H)-one], the inhibition at 1 µM worked out at 106% on Cdc7/Dbf4 complex (setting [5]), 71.7% in experiment [1] (setting [6]) and 98.4% in experiment [2] (setting [7]).

As to `Cc1[nH]ncc1-c1cc2nc(C34CCC(CC3)N4)[nH]c(=O)c2s1` [Example 116, 2-(7-azabicyclo[2.2.1]hept-1-yl)-6-(5-methyl-1H-pyrazol-4-yl)thieno[3,2-d]pyrimidin-4 (3H)-one monohydrochloride], the inhibition at 1 µM on Cdc7/Dbf4 complex (setting [9]) was found to be 102%; in experiment [1], 60.5%; in experiment [2] (COLO 205, 8 h) it was 98.7%.

Consider `O=c1[nH]c(CN2CCCC2)nc2cc(-c3cn[nH]c3C(F)(F)F)sc12` [Example 143, 2-(pyrrolidin-1-ylmethyl)-6-[5-(trifluoromethyl)-1H-pyrazol-4-yl]thieno[3,2-d]pyrimidin-4 (3H)-one], for which, on Cdc7/Dbf4 complex (setting [5]), the inhibition at 1 µM came out at 122%.

As for `Cc1[nH]ncc1-c1cc2nc([C@@H]3CC=CCN3)[nH]c(=O)c2s1` [Example 145, 6-(5-methyl-1H-pyrazol-4-yl)-2-[(2S)-1,2,3,6-tetrahydropyridin-2-yl]thieno[3,2-d]pyrimidin-4 (3H)-one dihydrochloride], the inhibition at 1 µM at Cdc7/Dbf4 complex (setting [9]) stood at 126%; in experiment [1], 78.5%; in experiment [2] (COLO 205, 8 h), 95.8%. Further, the “T/C (%)” value in experiment [3] (setting [11]) is reported as −4.7%. The inhibition at 100 mg/kg in experiment [4] was determined as 68.9%.

Take `Cc1[nH]ncc1-c1cc2nc([C@H]3CC=CCN3)[nH]c(=O)c2s1` [Example 146, 6-(5-methyl-1H-pyrazol-4-yl)-2-[(2R)-1,2,3,6-tetrahydropyridin-2-yl]thieno[3,2-d]pyrimidin-4 (3H)-one dihydrochloride]: the inhibition at 1 µM on Cdc7/Dbf4 complex (setting [9]) was 108%.

As for `Cc1[nH]ncc1-c1cc2nc(C34CC(CN3)C4)[nH]c(=O)c2s1` [Example 148, 2-(2-azabicyclo[2.1.1]hex-1-yl)-6-(5-methyl-1H-pyrazol-4-yl)thieno[3,2-d]pyrimidin-4 (3H)-one hydrochloride], the inhibition at 1 µM at Cdc7/Dbf4 complex (read-out: inhibitory rate (%) at 1 μM) was 102%.

Take `Cc1[nH]ncc1-c1cc2nc([C@]34C[C@H]3CCN4)[nH]c(=O)c2s1` [Example 157, 2-[(1S,5R)-2-azabicyclo[3.1.0]hex-1-yl]-6-(5-methyl-1H-pyrazol-4-yl)thieno[3,2-d]pyrimidin-4 (3H)-one dihydrochloride]: the inhibition at 1 µM on Cdc7/Dbf4 complex (setting [5]) is 92%.

For the molecule `CCc1[nH]ncc1-c1cc2nc([C@@H]3CCCCN3)[nH]c(=O)c2s1` [Example 162, 6-(5-ethyl-1H-pyrazol-4-yl)-2-[(2S)-piperidin-2-yl]thieno[3,2-d]pyrimidin-4 (3H)-one dihydrochloride], the inhibition at 1 µM on Cdc7/Dbf4 complex (setting [5]) came out at 104%.

Consider `Cc1[nH]ncc1-c1cc2nc([C@H]3CC4CCN3CC4)[nH]c(=O)c2s1` [Example 164, 2-[(2R)-1-azabicyclo[2.2.2]oct-2-yl]-6-(5-methyl-1H-pyrazol-4-yl)thieno[3,2-d]pyrimidin-4 (3H)-one trifluoroacetate], for which the inhibition at 1 µM on Cdc7/Dbf4 complex (setting [5]) was determined as 101%.

On to `O=c1[nH]c(C23CC(CN2)C3)nc2cc(-c3cn[nH]c3C(F)(F)F)sc12` [Example 165, 2-(2-azabicyclo[2.1.1]hex-1-yl)-6-[5-(trifluoromethyl)-1H-pyrazol-4-yl]thieno[3,2-d]pyrimidin-4 (3H)-one dihydrochloride], for which the inhibition at 1 µM on Cdc7/Dbf4 complex (setting [5]) was 105%.

`Cc1[nH]ncc1-c1cc2nc([C@@H]3CC4CCN3CC4)[nH]c(=O)c2s1` [Example 170, 2-[(2S)-1-azabicyclo[2.2.2]oct-2-yl]-6-(5-methyl-1H-pyrazol-4-yl)thieno[3,2-d]pyrimidin-4 (3H)-one trifluoroacetate]: the inhibition at 1 µM on Cdc7/Dbf4 complex (setting [5]) worked out at 95%; in experiment [1] it was 69.7%; in experiment [2] (COLO 205, 8 h), 97.3%.

With `Cc1[nH]ncc1-c1cc2nc([C@@H]3CCCCN3)[nH]c(=O)c2s1` [Example 172, 6-(5-methyl-1H-pyrazol-4-yl)-2-[(2S)-piperidin-2-yl]thieno[3,2-d]pyrimidin-4 (3H)-one hydrochloride], the “inhibitory rate (%) at 1 μM” value against Cdc7/Dbf4 complex (setting [8]) is recorded as 102%.

For the molecule `Cc1[nH]ncc1-c1cc2nc([C@@H]3CCCCN3)[nH]c(=O)c2s1` [Example 174, 6-(5-methyl-1H-pyrazol-4-yl)-2-[(2S)-piperidin-2-yl]thieno[3,2-d]pyrimidin-4 (3H)-one], at Cdc7/Dbf4 complex (test compound 1 μM, Cdc7/Dbf4, 1.0 μm ATP, 10 μg/ml MCM2), the “inhibitory rate (%) at 1 μM” value was 104%.

For the origin of these results see patent publication US9388195B2, “Heterocyclic compound” (Takeda Pharmaceutical Company Limited, priority 2010, dated 2016).
